Results reported in patent US8735388B2, “Heterocyclic compounds with affinity to muscarinic receptors” (Abbvie B. V. A., priority 2007, dated 2014).
Where two headings read alike, the source gives them in different places.

Legend:
[1] = target: T1, Muscarine M4 (GPCR-A-MA-ACH M4) (Homo sapiens, UniProt P08173); experiment: Muscarine M4 receptor binding, 3H-4DAMP; details: human M4, CHO cells, ligand 0.2 nM, 60 min/22° C.; for Ki: read-out: RB Musc. M4 3H-DAMP pKi (converted)
T1 construct: expressed in transfected cells; host or cells: CHO cells
T1 sequence (P08173 1-479): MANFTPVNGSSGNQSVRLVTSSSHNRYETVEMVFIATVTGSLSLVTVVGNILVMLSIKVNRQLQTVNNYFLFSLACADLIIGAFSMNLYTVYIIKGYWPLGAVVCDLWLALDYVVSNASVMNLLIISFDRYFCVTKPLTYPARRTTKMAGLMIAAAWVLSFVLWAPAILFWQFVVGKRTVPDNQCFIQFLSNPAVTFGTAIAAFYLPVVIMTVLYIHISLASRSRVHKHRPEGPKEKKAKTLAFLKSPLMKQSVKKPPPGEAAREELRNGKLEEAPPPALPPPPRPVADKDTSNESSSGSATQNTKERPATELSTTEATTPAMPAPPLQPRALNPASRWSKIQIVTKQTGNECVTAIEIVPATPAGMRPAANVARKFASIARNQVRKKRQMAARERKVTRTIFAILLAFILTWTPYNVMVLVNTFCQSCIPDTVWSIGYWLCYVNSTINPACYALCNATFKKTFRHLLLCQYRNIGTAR
Method: (§1) Compounds were dissolved in DMSO (10 mM) and diluted in assay buffer to test concentration. Prime testing was at 10 μM; for actives (PI, percent inhibition with respect to total and non-specific binding >40%) testing was continued at lower concentrations in 10-fold dilutions: 1 μM, 0.1 μM, etc.
(§2) Following incubation of compound with the receptor preparation (from ‘Tissue’) and the Ligand at the time and temperature indicated, the receptor preparations were rapidly filtered under vacuum through glass fibre filters; the filters were washed extensively with an ice-cold buffer using a harvester. Bound radioactivity was measured by scintillation counting using a liquid scintillation cocktail.
(§3) Results were expressed as percentage of total Ligand binding and that of Non Specific Binding, per concentration of Compound tested (duplicates); from the concentration—displacement curves IC50 values were determined by non-linear regression analysis using Hill equation curve fitting. The inhibition constants (Ki) were calculated from the Cheng-Prushoff equation Ki=IC50/(1+L/Kd), where L is the concentration of radioligand in the assay, and Kd the affinity of the radioligand for the receptor. Results were expressed as pKi's, means±SD of at least 2 separate experiments; i.e. outliers (outside+/−1 std of mean) and discrepancies were excluded.

[2] = target: T1, Muscarine M4 (GPCR-A-MA-ACH M4); experiment: Muscarine M4 receptor binding, 3H-Oxotremorine
Method: as §1, §2, §3

[3] = target: T1, Muscarine M4 (GPCR-A-MA-ACH M4); experiment: Muscarine M4 cell-based functional assay (CHO cells, Ca2+ - Aequorin luminescence)
Method: Compounds were dissolved in DMSO (10 mM) and diluted in assay buffer to test concentration. Prime testing was at 1 μM; for actives in antagonist mode (PI, percent inhibition with respect to reference agonist and blank>30%) as well as actives in agonist mode (PS, percent stimulation with respect to reference agonist and blank>30%) testing was continued at lower concentrations in 10-fold dilutions: 0.1 μM, 0.01 μM, etc.
Cells were incubated with compound and the response indicated was measured.
The results are expressed as a percent of reference agonist values and blanks in the presence of the test compound, percent stimulation for agonist mode; for the antagonist mode (test compound in the presence of reference agonist) as percent inhibition. The EC50 values (concentration causing a half-maximal stimulation of control values), IC50 values (concentration causing a half-maximal inhibition of control values) were determined by non-linear regression analysis of the concentration-response curves using Hill equation curve fitting.

[4] = target: T2, Muscarine M1 (GPCR-A-MA-ACH M1) (Homo sapiens, UniProt P11229); experiment: Muscarine M1 receptor binding, 3H-Pirenzepine; details: human M1, CHO cells, ligand 2 nM, 60 min/22° C.; for Ki: read-out: RB Musc. M1 3H-Pirenzepine pKi (converted)
T2 construct: expressed in transfected cells; host or cells: CHO cells
T2 sequence (P11229 1-460): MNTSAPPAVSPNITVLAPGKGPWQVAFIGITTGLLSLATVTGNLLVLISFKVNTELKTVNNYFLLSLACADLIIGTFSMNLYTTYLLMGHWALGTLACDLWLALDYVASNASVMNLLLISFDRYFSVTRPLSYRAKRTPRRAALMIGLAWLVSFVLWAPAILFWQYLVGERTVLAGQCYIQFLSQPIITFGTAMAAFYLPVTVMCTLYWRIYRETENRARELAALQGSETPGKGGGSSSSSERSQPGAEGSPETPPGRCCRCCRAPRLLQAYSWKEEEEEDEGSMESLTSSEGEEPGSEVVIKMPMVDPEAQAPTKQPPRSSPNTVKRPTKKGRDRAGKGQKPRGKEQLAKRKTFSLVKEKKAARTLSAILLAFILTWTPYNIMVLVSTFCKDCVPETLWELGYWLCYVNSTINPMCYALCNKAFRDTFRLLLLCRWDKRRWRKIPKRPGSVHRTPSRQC
Method: as §1, §2, §3

[5] = target: T2, Muscarine M1 (GPCR-A-MA-ACH M1); experiment: Muscarine M1 cell-based functional assay (CHO cells, Ca2+ - FLIPR Fluorimetry); details: for EC50: read-out: Cell funct. Musc. M1 Agonism pEC50 (converted)
[6] = target: T3, Muscarine M2 (GPCR-A-MA-ACH M2) (Homo sapiens, UniProt P08172); experiment: Muscarine M2 receptor binding
T3 construct: expressed in transfected cells; host or cells: CHO cells
T3 sequence (P08172 1-466): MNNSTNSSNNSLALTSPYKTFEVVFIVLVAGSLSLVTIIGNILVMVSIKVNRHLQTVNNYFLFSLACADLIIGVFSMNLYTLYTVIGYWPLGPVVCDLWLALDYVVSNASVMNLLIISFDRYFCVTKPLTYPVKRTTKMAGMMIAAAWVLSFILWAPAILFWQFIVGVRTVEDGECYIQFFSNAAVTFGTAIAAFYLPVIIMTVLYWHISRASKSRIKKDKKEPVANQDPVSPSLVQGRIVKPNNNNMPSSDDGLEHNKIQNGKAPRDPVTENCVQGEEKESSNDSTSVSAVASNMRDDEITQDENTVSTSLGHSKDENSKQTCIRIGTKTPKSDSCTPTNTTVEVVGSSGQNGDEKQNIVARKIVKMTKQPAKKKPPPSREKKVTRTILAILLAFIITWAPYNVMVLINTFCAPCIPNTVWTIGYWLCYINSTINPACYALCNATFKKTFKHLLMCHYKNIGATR

[7] = target: T4, Muscarine M2 (GPCR-A-MA-ACH M2) (Cavia porcellus, UniProt H0VRN8); experiment: Muscarine M2 functional assay, isolated organ (left atrium, electrically paced), agonist and antagonist mode; parameters: species or system Guinea Pig; details: for EC50: read-out: Cell funct. Musc. M2 Agonism pEC50 (converted)
T4 construct: from tissue; host or cells: guinea pig left atrium (electrically paced)
T4 sequence (H0VRN8 1-466): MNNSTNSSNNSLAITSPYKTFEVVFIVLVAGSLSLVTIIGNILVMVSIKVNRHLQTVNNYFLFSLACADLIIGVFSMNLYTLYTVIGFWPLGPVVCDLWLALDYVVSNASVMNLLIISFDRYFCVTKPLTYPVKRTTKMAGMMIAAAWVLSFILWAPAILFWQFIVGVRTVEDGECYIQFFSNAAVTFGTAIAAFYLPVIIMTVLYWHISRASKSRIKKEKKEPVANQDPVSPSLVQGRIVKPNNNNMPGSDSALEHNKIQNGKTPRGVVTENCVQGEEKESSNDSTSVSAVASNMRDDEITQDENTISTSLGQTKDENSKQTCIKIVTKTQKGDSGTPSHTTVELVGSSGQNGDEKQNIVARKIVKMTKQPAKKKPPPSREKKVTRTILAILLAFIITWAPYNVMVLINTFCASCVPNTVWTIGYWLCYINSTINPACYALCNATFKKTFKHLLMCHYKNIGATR

[8] = target: T5, Muscarine M3 (GPCR-A-MA-ACH M3) (Homo sapiens, UniProt P20309); experiment: Muscarine M3 receptor binding
T5 construct: expressed in transfected cells; host or cells: CHO cells
T5 sequence (P20309 whole entry): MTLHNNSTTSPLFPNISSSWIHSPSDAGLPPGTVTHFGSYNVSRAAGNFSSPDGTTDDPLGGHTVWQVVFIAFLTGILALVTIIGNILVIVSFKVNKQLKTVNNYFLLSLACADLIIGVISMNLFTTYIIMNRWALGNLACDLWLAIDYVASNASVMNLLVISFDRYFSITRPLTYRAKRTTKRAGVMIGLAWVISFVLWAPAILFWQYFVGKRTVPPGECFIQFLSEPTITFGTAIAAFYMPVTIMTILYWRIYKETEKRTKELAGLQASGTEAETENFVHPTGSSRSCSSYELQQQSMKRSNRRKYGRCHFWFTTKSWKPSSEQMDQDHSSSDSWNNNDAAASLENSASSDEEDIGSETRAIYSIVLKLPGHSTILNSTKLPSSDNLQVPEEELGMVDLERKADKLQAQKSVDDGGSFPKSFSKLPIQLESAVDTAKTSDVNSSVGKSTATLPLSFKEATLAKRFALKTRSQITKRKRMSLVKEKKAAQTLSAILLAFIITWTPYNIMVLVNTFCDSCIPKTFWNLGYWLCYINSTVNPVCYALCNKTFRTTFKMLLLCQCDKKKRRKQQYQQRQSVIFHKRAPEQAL

[9] = target: T6, Muscarine M3 (GPCR-A-MA-ACH M3) (Cavia porcellus, UniProt H0W1Z3); experiment: Muscarine M3 functional assay, isolated organ (ileum), agonist and antagonist mode; parameters: species or system Guinea Pig; details: for EC50: read-out: Cell funct. Musc. M3 Agonism pEC50 (converted)
T6 construct: from tissue; host or cells: guinea pig ileum
T6 sequence (H0W1Z3 1-590): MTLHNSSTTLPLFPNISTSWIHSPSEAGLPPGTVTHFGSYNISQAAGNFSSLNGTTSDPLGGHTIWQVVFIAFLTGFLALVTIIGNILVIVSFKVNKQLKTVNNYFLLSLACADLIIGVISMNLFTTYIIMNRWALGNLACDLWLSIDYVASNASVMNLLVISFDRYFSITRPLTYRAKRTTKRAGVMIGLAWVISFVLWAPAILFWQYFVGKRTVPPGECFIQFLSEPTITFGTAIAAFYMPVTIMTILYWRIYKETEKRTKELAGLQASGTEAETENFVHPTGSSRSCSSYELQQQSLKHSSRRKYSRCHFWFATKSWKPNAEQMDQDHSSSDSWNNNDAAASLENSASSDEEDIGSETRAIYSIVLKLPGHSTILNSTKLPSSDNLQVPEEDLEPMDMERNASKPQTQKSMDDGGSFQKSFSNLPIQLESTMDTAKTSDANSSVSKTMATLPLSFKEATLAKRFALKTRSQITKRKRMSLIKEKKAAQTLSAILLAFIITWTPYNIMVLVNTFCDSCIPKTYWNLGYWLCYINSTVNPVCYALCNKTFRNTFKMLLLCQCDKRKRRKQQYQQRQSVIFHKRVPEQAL

[10] = human M4, CHO cells, receptor binding, ligand 6 nM, 30 min/25° C., read-out: RB Musc. M4 3H-Oxotremorine pKi (converted)
[11] = human M4, CHO cells, agonist mode, reference agonist oxotremorine, read-out: Cell funct. Musc. M4 Agonism pEC50 (converted)
[12] = human M1, CHO cells, agonist mode, reference agonist acetylcholine
[13] = human M2, CHO cells, receptor binding
[14] = read-out: Cell funct. Musc. M2 Antagonism pA2 (converted)
[15] = human M3, CHO cells, receptor binding

Ki [2, 10]	EC50 [3, 11]	EC50 [5, 12]	Ki [6, 13]	Kb [7, 14]	Ki [8, 15]	Kb [9]	SMILES	Ki [1]	Ki [4]	EC50 [7]	EC50 [9]	Ki [2]	EC50 [5]	Ki [6]	Kb [7]	Ki [8]	further results
1 µM	1 µM	0.0794 µM	6.31 µM	> 1 µM	2.51 µM	> 1 µM	CCCCCCSc1nc[nH]c1C1=CCCN(C)C1 [Compound 76B, 3-(5-Hexylsulfanyl-3H-imidazol-4-yl)-1,2,5,6-tetrahydro-1-methylpyridine]	0.501 µM	3.98 µM	> 1 µM	> 1 µM						
							c1ccc(CCSc2c[nH]nc2C2CN3CCC2CC3)cc1 (stereo not drawn) [Compound 49G, 3-(4-Phenethylsulfanyl-1H-pyrazol-3-yl)-1-azabicyclo[2.2.2]octane]										RB Musc. M4 3H-DAMP pKi [1]: 7.0; RB Musc. M4 3H-Oxotremorine pKi [2]: 7.6; Cell funct. Musc. M4 Agonism pEC50 [3]: 8.0; RB Musc. M1 3H-Pirenzepine pKi [4]: 6.2; Cell funct. Musc. M1 Agonism pEC50 [5]: 7.3; RB Musc M2 methoctramine [6]: 6.1; Cell funct. Musc. M2 Agonism pEC50 [7]: <6; Cell funct. Musc. M2 Antagonism pA2 [7]: <6; RB Musc M3 4-DAMP [8]: 6.5; Cell funct. Musc. M3 Agonism pEC50 [9]: <6; Cell funct. Musc. M3 Antagonism pA2 [9]: <6
0.158 µM	> 10 µM	> 1 µM	0.398 µM	> 1 µM	0.0316 µM	> 1 µM	CN1CCC=C(c2n[nH]cc2SCCCCCSc2c[nH]nc2C2=CCCN(C)C2)C1 [Compound 22C]	0.0631 µM	0.251 µM	> 1 µM	> 1 µM						
							COc1ccccc1CNCCCCCCNCCCCCCCCNCCCCCCNCc1ccccc1OC [Methoctramine, reference compound]								0.0126 µM		
						0.00126 µM	CN1CCN(CC(=O)N2c3ccccc3C(=O)Nc3cccnc32)CC1 [Pirenzepine, reference compound]										
0.631 µM	7.94 µM	0.126 µM	5.01 µM	> 1 µM	0.794 µM	> 1 µM	CCCCCSc1nc[nH]c1C1=CCCN(C)C1 [Compound 76A, 3-(5-Pentylsulfanyl-3H-imidazol-4-yl)-1,2,5,6-tetrahydro-1-methylpyridine]	0.316 µM	2.51 µM	> 1 µM	> 1 µM						
0.158 µM	> 10 µM	0.398 µM	2 µM	> 1 µM	0.0501 µM	0.1 µM	CC(C)CCSc1c[nH]nc1C1=CCCN(C)C1 [Compound 22S, 3-[4-(3-methyl-butylsulfanyl)-1H-pyrazol-3-yl]-1,2,5,6-tetrahydro-1-methylpyridine]	0.0501 µM	0.126 µM	> 1 µM	> 1 µM						

SMILES	Ki [2, 10]	EC50 [3, 11]	EC50 [5, 12]	Ki [6, 13]	Kb [7, 14]	Ki [8, 15]	Kb [9]	Ki [1]	Ki [4]	EC50 [7]	EC50 [9]	Ki [2]	EC50 [5]	Ki [6]	Kb [7]	Ki [8]	further results
CCCSc1c[nH]nc1C1CN2CCC1CC2 (stereo not drawn) [Compound 49E, 3-(4-Propylsulfanyl-1H-pyrazol-3-yl)-1-azabicyclo[2.2.2]octane]							> 1 µM	0.0398 µM	0.316 µM	0.794 µM	> 1 µM	0.0794 µM	0.01 µM	0.501 µM	> 1 µM	0.126 µM	EC50 [3]: 0.0794 µM
CCCCCOc1c[nH]nc1C1CN2CCC1CC2 (stereo not drawn) [Compound 52C, 3-(4-Pentyloxy-1H-pyrazol-3-yl)-1-azabicyclo[2.2.2]octane]							> 1 µM	0.251 µM	1 µM	> 1 µM	> 1 µM	0.0631 µM	0.0126 µM	2.51 µM	> 1 µM	0.631 µM	
CCCOc1c[nH]nc1C1CN2CCC1CC2 (stereo not drawn) [Compound 52B, 3-(4-Propoxy-1H-pyrazol-3-yl)-1-azabicyclo[2.2.2]octane]							> 1 µM	0.126 µM	0.631 µM	> 1 µM	> 1 µM	0.0631 µM	0.00794 µM	1.26 µM	0.0251 µM	0.316 µM	EC50 [3]: 0.1 µM
CCCCOc1c[nH]nc1C1CN2CCC1CC2 (stereo not drawn) [Compound 52A, 3-(4-Butoxy-1H-pyrazol-3-yl)-1-azabicyclo[2.2.2]octane]							> 1 µM	0.251 µM	0.794 µM	> 1 µM	> 1 µM	0.126 µM	0.02 µM	3.98 µM	> 1 µM	0.794 µM	
